Tested on: mice (129Sv background)
Assay: mice, two-week treatment, normal diet
Format: in vivo, mouse
Conditions: two weeks
Protocol: Food intake was similar between both groups (3.8 and 3.5 g/mouse/day for treated and control mice, respectively).
In the second protocol, two groups of male mice (n=5) were treated daily for two weeks with either 30 mg/kg fatostatin A or 10% DMSO in PBS. Food intake and body weight were measured daily. At the end of the experiments, the mice were briefly fasted for 4-5 hrs, and their blood was withdrawn for determination of serum constituents. The mice were then sacrificed, and their livers were quickly removed and ground to powder in liquid nitrogen. The powdered tissues were suspended in 10 ml of PBS containing 0.1 mM PMSF, 5 mM benzamidine, and 5 mg/mL protease inhibitor cocktail (Roche), homogenized using Polytron (3×30 Sec, at a high speed), and sonicated briefly to degrade DNA. The extracts were clarified by centrifugation at 16,000×g for 20 min. The samples were then subjected to western blot analysis using commercially available antibodies against FAS and SREBP-1. FAS and ACC activities were determined as described earlier (Mao et al., 2006).

**Q.** For CCCc1cc(-c2nc(-c3ccc(C)cc3)cs2)ccn1 [Compound 1, 2-propyl-4-(4-p-tolylthiazol-2-yl)pyridine], which “loss of body weight” value (30 mg/kg daily, normal diet, control no change) is on record?
**A.** 10%

**Q.** And the “decrease of FAS activity and its protein level in liver” value (30 mg/kg daily)?
**A.** about 30%

**Q.** And the food intake (control 3.5)?
**A.** 3.8 g/mouse/day

Source: patent US9713613B2, “Methods and compositions for the treatment of cancer and related hyperproliferative disorders” (priority 2007, dated 2017)
